Where a name gives a salt, the structure may show the parent alone.
Structure (SMILES)	melting point
CN(C)CCCC(=O)N[C@@H]1CN2C(=O)N(c3cc(Cl)cc(Cl)c3)C(=O)[C@@]2(Cc2ccc(OC(F)(F)F)cc2)C1 [Example 302, (5R, 7S)-5-[4-(Trifluoromethoxy)benzyl]-3-(3,5-dichlorophenyl)-7-[[4-(dimethylamino)butyryl]amino]-1,3-diazabicyclo[3.3.0]octane-2,4-dione]	57.9 °C
COC(=O)/C=C/c1cccc(-c2ccc(CC34CCCN3C(=O)N(c3cc(Cl)cc(Cl)c3)C4=O)cc2)c1 (centres unmarked) [Example 224, (E)-5-[4-[3-(2-Methoxycarbonyl)vinylphenyl]benzyl]-3-(3,5-dichlorophenyl)-1,3-diazabicyclo[3.3.0]octane-2,4-dione]	71.3 °C
N#Cc1cc(CC23CCCN2C(=O)N(c2cc(Cl)nc(Cl)c2)C3=O)ccc1O (centres unmarked) [Example 197, 5-(3-Cyano-4-hydroxybenzyl)-3-(2,6-dichloro-4-pyridyl)-1,3-diazabicyclo[3.3.0]octane-2,4-dione]	113.5 °C
CC(C)(C)OC(=O)N1CCN2C(=O)N(c3cc(Cl)cc(Cl)c3)C(=O)C2(Cc2ccc(Br)cc2)C1 (centres unmarked) (as salt: Na) [Example 26, 4-(tert-Butoxycarbonyl)-6-(4-bromobenzyl)-8-(3,5-dichlorophenyl)-1,4,8-triazabicyclo[4.3.0]nonane-7,9-dione]	79.5 °C
CS(=O)(=O)c1ccc(CC23CCCN2C(=O)N(c2cc(Cl)cc(Cl)c2)C3=O)cc1 (centres unmarked) [Example 190, 5-(4-Methylsulfonylbenzyl)-3-(3,5-dichlorophenyl)-1,3-diazabicyclo[3.3.0]octane-2,4-dione]	80.3 °C
COC(=O)N1CCCC2(Cc3ccc(Br)cc3)C(=O)N(c3cc(Cl)nc(Cl)c3)C(=O)N12 (centres unmarked) [Example 102, 6-(4-Bromobenzyl)-8-(2,6-dichloro-4-pyridyl)-2-methoxycarbonyl-1,2,8-triazabicyclo[4.3.0]nonane-7,9-dione]	81 °C
N#Cc1ccc(CC23CCCN2C(=O)N(c2cc(Cl)nc(Cl)c2)C3=O)cc1 (centres unmarked) [Example 130, 5-(4-Cyanobenzyl)-3-(2,6-dichloro-4-pyridyl)-1,3-diazabicyclo[3.3.0]octane-2,4-dione]	96 °C
O=C1CCCN1c1cccc(-c2ccc(CC34CCCN3C(=O)N(c3cc(Cl)cc(Cl)c3)C4=O)cc2)c1 (centres unmarked) [Example 127, 5-[4-[3-(2-oxo-1-pyrrolidinyl)phenyl]benzyl]-3-(3,5-dichlorophenyl)-1,3-diazabicyclo[3.3.0]octane-2,4-dione]	86.5 °C
CC(C)(C)OC(=O)c1c(Cl)cc(N2C(=O)N3CCCC3(Cc3ccc(Br)cc3)C2=O)cc1Cl (centres unmarked) [Example 225, 5-(4-Bromobenzyl)-3-[3,5-dichloro-4-(t-butoxycarbonyl)phenyl]-1,3-diazabicyclo[3.3.0]octane-2,4-dione]	109 to 110 °C
O=C1N(c2cccc(C(F)(F)F)c2)C(=O)C2(Cc3ccc(Br)cc3)CCCN12 (centres unmarked) [Example 233]	82.6 °C
CS(=O)(=O)N1CCN2C(=O)N(c3cc(Cl)cc(Cl)c3)C(=O)C2(Cc2ccc(Br)cc2)C1 (centres unmarked) [Example 33, 4-Methanesulfonyl-6-(4-bromobenzyl)-8-(3,5-dichlorophenyl)-1,4,8-triazabicyclo[4.3.0]nonane-7,9-dione]	229 °C
COC(=O)N[C@@H]1CN2C(=O)N(c3cc(Cl)nc(Cl)c3)C(=O)[C@@]2(Cc2ccc(OC(F)(F)F)cc2)C1 [Example 250, (5R, 7S)-5-[4-(Trifluoromethoxy)benzyl]-3-(2,6-dichloro-4-pyridyl)-7-methoxycarbonylamino-1,3-diazabicyclo[3.3.0]octane-2,4-dione]	119.8 °C
CS(=O)(=O)NCC(=O)N[C@@H]1CN2C(=O)N(c3cc(Cl)nc(Cl)c3)C(=O)[C@@]2(Cc2ccc(OC(F)(F)F)cc2)C1 [Example 253, (5R, 7S)-5-[4-(Trifluoromethoxy)benzyl]-3-(2,6-dichloro-4-pyridyl)-7-[(methansulfonylaminoacetyl)amino]-1,3-diazabicyclo[3.3.0]octane-2,4-dione]	104.9 °C
Cc1cc([C@H]2CN3C(=O)N(c4cc(Cl)nc(Cl)c4)C(=O)[C@]3(Cc3ccc(OC(F)(F)F)cc3)C2)c(C)[nH]1 [Example 288, (5R, 7S)-5-[4-(Trifluoromethoxy)benzyl]-3-(2,6-dichloro-4-pyridyl)-7-(2,5-dimethylpyrrolyl)-1,3-diazabicyclo[3.3.0]octane-2,4-dione]	112.4 °C
O=C(Nc1ccccc1)Nc1cccc(-c2ccc(CC34CCCN3C(=O)N(c3cc(Cl)cc(Cl)c3)C4=O)cc2)c1 (centres unmarked) [Example 126, 5-[4-[3-(Phenylureido)phenyl]benzyl]-3-(3,5-dichlorophenyl)-1,3-diazabicyclo[3.3.0]octane-2,4-dione]	150.2 °C
N#Cc1ccc(CC23CCCN2C(=O)N(CCc2cccc(Cl)c2)C3=O)cc1 (centres unmarked) [Example 107, 5-(4-Cyanobenzyl)-3-[2-(3-chlorophenyl)ethyl]-1,3-diazabicyclo[3.3.0]octane-2,4-dione]	148 °C
CS(=O)(=O)N[C@@H]1CN2C(=O)N(c3cc(Cl)nc(Cl)c3)C(=O)[C@@]2(Cc2ccc(OC(F)(F)F)cc2)C1 [Example 254, (5R, 7S)-5-[4-(Trifluoromethoxy)benzyl]-3-(2,6-dichloro-4-pyridyl)-7-methanesulfonylamino-1,3-diazabicyclo[3.3.0]octane-2,4-dione]	207.2 °C
N#Cc1ccc(CC23CCCN2C(=O)N(Cc2cc(Cl)cc(Cl)c2)C3=O)cc1 (centres unmarked) [Example 106, 5-(4-Cyanobenzyl)-3-(3,5-dichlorobenzyl)-1,3-diazabicyclo[3.3.0]octane-2,4-dione]	124 °C

Structure (SMILES)	melting point
O=C1N(c2cc(Cl)nc(Cl)c2)C(=O)[C@@]2(Cc3ccc(OC(F)(F)F)cc3)C[C@@H](O)CN12 [Example 58, (5R,7R)-5-[4-(Trifluoromethoxy)benzyl]-3-(2,6-dichloro-4-pyridyl)-7-hydroxy-1,3-diazabicyclo[3.3.0]octane-2,4-dione]	52.4 °C
COC(=O)CCN1CCCC2(Cc3ccc(Br)cc3)C(=O)N(c3cc(Cl)nc(Cl)c3)C(=O)N12 (centres unmarked) [Example 103, 6-(4-Bromobenzyl)-8-(2,6-dichloro-4-pyridyl)-2-[2-(methoxycarbonyl)ethyl]-1,2,8-triazabicyclo[4.3.0]nonane-7,9-dione]	157 °C
O=C1N(c2cc(Cl)cc(Cl)c2)C(=O)C2(Cc3ccc(Br)cc3)C[C@@H](c3ccccc3)CN12 (stereo partly drawn) [Example 83, (7S)-5-(4-Bromobenzyl)-3-(3,5-dichlorophenyl)-7-phenyl-1,3-diazabicyclo[3.3.0]octane-2,4-dione]	123.5 °C
CNC(=O)C1CN2C(=O)N(c3cc(Cl)cc(Cl)c3)C(=O)C2(Cc2ccc(OC(F)(F)F)cc2)C1 (centres unmarked) [Example 314]	212.6 °C
CC(C)(C)OC(=O)N1CCC2(Cc3ccc(C#N)cc3)C(=O)N(c3cc(Cl)nc(Cl)c3)C(=O)N12 (centres unmarked) [Example 56, 8-(t-Butoxycarbonyl)-5-(4-cyanobenzyl)-3-(2,6-dichloro-4-pyridyl)-1,3,8-triazabicyclo[3.3.0]octane-2,4-dione]	179 °C
O=C1N(c2cc(Cl)cc(Cl)c2)C(=O)C2(Cc3ccc(Br)cc3)CC(F)(F)CN12 (centres unmarked) [Example 110, 5-(4-Bromobenzyl)-3-(3,5-dichlorophenyl)-7,7-difluoro-1,3-diazabicyclo[3.3.0]octane-2,4-dione]	160.3 °C
CCN(CC)CCN1CCN2C(=O)N(c3cc(Cl)cc(Cl)c3)C(=O)C2(Cc2ccc(Br)cc2)C1 (centres unmarked) (as salt: HCl) [Example 32, 4-[2-(Diethylamino)ethyl]-6-(4-bromobenzyl)-8-(3,5-dichlorophenyl)-1,4,8-triazabicyclo[4.3.0]nonane-7,9-dione]	223 °C
COc1c(Cl)cc(N2C(=O)N3CCCC3(Cc3ccc(C#N)cc3)C2=O)cc1Cl (centres unmarked) [Example 139, 5-(4-Cyanobenzyl)-3-(3,5-dichloro-4-methoxyphenyl)-1,3-diazabicyclo[3.3.0]octane-2,4-dione]	95.1 °C
O=C1N(c2cc(Cl)cc(Cl)c2)C(=O)C2(Cc3ccc(Br)cc3)CCCN12 (centres unmarked) [Example 1, 5-(4-Bromobenzyl)-3-(3,5-dichlorophenyl)-1,3-diazabicyclo[3.3.0]octane-2,4-dione]	69.4 °C
O=C1N(c2cc(Cl)cc(Cl)c2)C(=O)C2(Cc3ccc(S(=O)(=O)C(F)(F)F)cc3)CCCN12 (centres unmarked) [Example 311]	72.5 °C
CC(=O)N1CCCC2(Cc3ccc(Br)cc3)C(=O)N(c3cc(Cl)nc(Cl)c3)C(=O)N12 (centres unmarked) [Example 101, 6-(4-Bromobenzyl)-8-(2,6-dichloro-4-pyridyl)-2-acetyl-1,2,8-triazabicyclo[4.3.0]nonane-7,9-dione]	91 °C
CN(C)CC(=O)N1CCN2C(=O)N(c3cc(Cl)nc(Cl)c3)C(=O)C2(Cc2ccc(C#N)cc2)C1 (centres unmarked) (as salt: HCl) [Example 166, 6-(4-Cyanobenzyl)-4-dimethylaminoacetyl-8-(2,6-dichloro-4-pyridyl)-1,4,8-triazabicyclo[4.3.0]nonane-7,9-dione]	260.8 °C (dec.)
O=C1N(c2cc(Cl)cc(Cl)c2)C(=O)C2(Cc3ccccc3)CCCN12 (centres unmarked) [Example 267]	173.8 °C
N[C@@H]1CN2C(=O)N(c3cc(Cl)cc(Cl)c3)C(=O)[C@@]2(Cc2ccc(Br)cc2)C1 [Example 47, (5R,7S)-5-(4-Bromobenzyl)-3-(3,5-dichlorophenyl)-7-amino-1,3-diazabicyclo[3.3.0]octane-2,4-dione]	64.4 °C
NCC(=O)N[C@@H]1CN2C(=O)N(c3cc(Cl)nc(Cl)c3)C(=O)[C@@]2(Cc2ccc(OC(F)(F)F)cc2)C1 [Example 252, (5R, 7S)-5-[4-(Trifluoromethoxy)benzyl]-3-(2,6-dichloro-4-pyridyl)-7-aminoacetylamino-1,3-diazabicyclo[3.3.0]octane-2,4-dione]	114 °C
CSc1cccc(N2C(=O)N3CCCC3(Cc3ccc(Br)cc3)C2=O)c1 (centres unmarked) [Example 231]	84.8 °C
O=C1N(c2cc(Cl)nc(Cl)c2)C(=O)C2(Cc3ccc(OC(F)(F)F)cc3)C[C@H](n3cccc3)CN12 (stereo in doubt) [Example 251, (5R, 7S)-5-[4-(Trifluoromethoxy)benzyl]-3-(2,6-dichloro-4-pyridyl)-7-(1-pyrrolyl)-1,3-diazabicyclo[3.3.0]octane-2,4-dione]	129.5 °C

From patent US7342012B2, “Inhibitors of αLβ2 mediated cell adhesion” (Mitsubishi Tanabe Pharma Corporation, priority 1999, dated 2008)
